Data as given in US20150291597A1, “NOVEL ORALLY BIOAVAILABLE BREATHING CONTROL MODULATING COMPOUNDS, AND METHODS OF USING SAME” (Galleon Pharmaceuticals, Inc., priority 2012, published 2015).
Entries after “also recorded” stand apart in the source; their conditions may differ. Where a name gives a salt, the structure may show the parent alone. Values belong to the compound of their own block, whether it stands above or below them.

Columns and labels:
[1] = system: anesthetized rats; experiment: Anesthetized rat spirometry screening assay (respiratory rate, tidal volume, minute volume; IV bolus); type: in vivo; settings: 0.3 mg/kg IV bolus
Excerpt: Anesthetized rats provide a quick method of screening compounds for respiratory and cardiovascular activity. In contrast to the conscious rat model, this model offers an experimental set up with less variation in the baseline cardiovascular and respiratory measures. Compounds screened in this assay may be examined in a conscious rat model.
Rats were initially anesthetized with 3% isoflurane (inhaled) and femoral artery and vein cannulas were surgically inserted. Once cannulated, the rats were transitioned to urethane anesthesia (1.5 g/kg; i.v.) and a tracheal cut-down was performed. After placing the tracheal cannula, it was connected to a pneumotach to record respiratory airflow from which respiratory rate (RR), tidal volume (VT), and their product minute volume were derived. After the surgical preparation was complete, animals were allowed to stabilize for 30 minutes while respiratory rate, tidal volume, minute volume, blood pressure and heart rate were recorded continuously. Arterial blood gases (ABG) were obtained from arterial blood collected from the femoral artery. ABG measurements were taken before and 6 minutes after vehicle and each dose of compound administered. Compounds being screened were administered via bolus injections through the venous cannula followed by a saline flush (total time of administration is approximately 30 seconds), and the animal was monitored for at least 6 minutes for changes in cardiovascular efforts. Compounds were prepared in formulations identified to ensure optimal solubility. As such, vehicle controls were matched for the formulation of each compound tested. Dosing of the compound being screened was 0.1 and 0.3 mg/kg. The next dose was not administered until all cardiovascular and respiratory measures had returned to baseline levels. The positive control compounds used were N-[4,6-di-(n-propylamino)-[1,3,5]triazin-2-yl]-O,N-dimethyl-hydroxylamine or N-[2,6-di-(n-propylamino)-[1,3]pyrimidin-4-yl]-O,N-dimethyl-hydroxylamine, both administered at the end of each screening experiment (0.3 mg/kg dose) to validate the experiment and also to serve as a measure with which the compound being screened could be compared.
Data were analyzed by collecting cardiovascular and respiratory data in 30 second averages (BINs). Data were plotted 2 minutes before challenge and then 6 minutes after challenge.
FIGS. 2A-2F summarize the effects of individual compounds on peak minute ventilation (increase in VE), overall increase in 2 minute area under the curve (AUC) which is a cumulative measure of effect, along with compound stability (half-life) in rat and human microsomes.

[2] = Solubility of cyanuric chloride in various solvents; type: physicochemical; settings: 10 g in 50 mL, sonicated 1 h
Description: The solubility of cyanuric chloride was examined as a way to limit its reactivity and the formation of undesired by-products. Cyanuric chloride (10 g) was mixed with 50 mL of indicated solvent (Table 22) and sonicated for 1 h with occasional swirling. If solid material remained as a suspension, it was filtered off and weighed.

[3] = system: rat; experiment: Minute volume and mean blood pressure in the rat upon oral dosing (plethysmography, telemetry); type: in vivo, Male Sprague Dawley rats; settings: 20 mg/kg PO
Description: Compounds were administered orally to rat and evaluated for effects on ventilatory and cardiovascular parameters.
Male Sprague Dawley rats (0.30-0.38 kg, n=4) were surgically implanted with ECG/blood pressure telemeters (Telemetry Research, Inc., Auckland, New Zweland) prior to data collection. The animals were acclimated to plethysmography chambers for a minimum period of 60 minutes. After this time, test compound (20 mg/kg, PO) or vehicle (0.9% saline) was administered by oral gavage. Respiratory and cardiovascular data were collected immediately thereafter for a period of 3 h using plethysmography (Buxco, Inc.) and telemetry (LabChart data acquisition software, AD instruments, Inc.). Each rat received test compound and vehicle during the course of the study and thus each animal served as its own control. Vehicle effects were subtracted from drug response (Drug-Veh) and the difference was reported as a mean percent (%) change over time±SE.

[4] = system: rats chronically treated with morphine; experiment: Apnea, sleep architecture and ventilatory response in rats chronically treated with morphine; type: in vivo, Adult male lean Zucker rats; settings: 7 mg/kg PO, versus vehicle
Description: The objective of this study was to quantify the effects of select compounds of this invention on apnea, ventilation and sleep structure in a rat model. The study consisted of two treatment conditions: (1) chronic morphine and test compound, such as Compound 5b administered orally (7 mg/kg, PO), and (2) chronic morphine and oral vehicle. Adult male lean Zucker rats were anesthetized for electroencephalogram (EEG) and electromyogram (EMG) telemeter implantation. At least 1 week was permitted post-surgery before animals were used further. Morphine sulfate was added to the drinking water of singly housed rats beginning with 0.1 mg/ml morphine and increasing the concentration in increments so that a final concentration of 0.6 mg/ml was achieved within 2 weeks. All respiratory measurements were made while animals were unrestrained in whole-body plethysmography chambers to permit animals to sleep and move freely. To avoid eliciting withdrawal, morphine water was continuously available during each plethysmography experiment. Minute volume and the number of central sleep apneas (CSA) were measured during all treatment conditions. A period of at least 1 to 1.5 h was permitted for animals to acclimate to the chamber before data collection began. The biopotential telemeters and their receivers were placed directly under the plethysmographic chambers and were used to continuously to capture EEG, EMG, and body temperature signals. Only data collected between the hours of 10 am to 4:30 pm were used in the final analysis to control for the effects of circadian rhythm on breathing.
Compound 5b (7 mg/kg) or an equivalent volume of vehicle was administered via an oral gavage tube at 12 pm. Data collected between 10 am and 12 pm represented baseline (pre-drug) conditions. Data collected between 12 pm and 4:30 pm represented post-drug conditions. Analyses of the EEG and EMG waveforms for the purpose of staging sleep-wake behavior in rats as awake, NREM sleep, and REM sleep were based on previous sleep studies involving rodents. Central apneas were defined as a respiratory cycle period that was more than or equal to twice the average cycle period during baseline recordings, which is consistent with how others have defined central apneas in rodents. Percent time in each sleep-wake state, minute volume, and central sleep apnea counts were compared between treatment groups using a two-way ANOVA (factors: drug treatment and time). Breathing data during wakefulness was not analyzed because movement prevents measurement of accurate volumes when using whole-body plethysmography. When differences were detected with ANOVA, Student-Neuman-Keuls post hoc tests were run for all main effects and interactions. Differences were considered significant when p<0.05. Values are expressed as means±SE.

[5] = system: carotid body; experiment: Carotid sinus nerve transection (CSNTx) in urethane anesthetized rats, minute volume; type: in vivo, adult male Sprague Dawley rats
Description: The objective of this study was to assess the role of carotid body sinus nerve activity on ventilation, as measured by minute volume, in rats treated with compounds of this invention, such as Compound 5b, versus a saline-treated group. Urethane anesthetized adult male Sprague Dawley rats and tracheal spirometry (pneumotachometry) techniques were used (Example 56). Vehicle (saline) and Compound 5b (0.1 and 0.3 mg/kg) were administered as IV boluses to 5 rats. The carotid sinus nerves were isolated in the neck and transected thereby denervating both carotid bodies. Vehicle and Compound 5b were re-administered IV. Animals were exposed to low inspired O2 (hypoxia) to confirm functionally complete nerve transections. The change in minute volume ΔVE (% of baseline above baseline) in response to saline/Compound 5b before and after carotid body denervation was measured.

[6] = Solubility of the hydrogen sulfate salt in solvents; type: physicochemical

SMILES: C#CCNc1nc(NCCC)nc(N(C)OC)n1.O=C(O)/C=C/C(=O)O
melting point: 153 to 155 °C

SMILES: C#CCNc1nc(NCCC)nc(N(Cc2ccc(F)cc2)OC)n1 [Compound 9a, N-(4-Fluorobenzyl)-O-methyl-N-[4-(n-propylamino)-6-(prop-2-ynylamino)-[[1,3,5]triazin-2-yl]-hydroxylamine hydrochloride]
duration of the increase in minute ventilation [1]: approximately 2 minutes
increase in minute ventilation above baseline values [1]: up to 110%
increase in respiratory rate [1]: up to 24%
increase in tidal volume [1]: up to 72%

melting point: 84 to 86 °C
SMILES: C#CCNc1nc(NCCC)nc(N(C)OCC#C)n1.Cl

SMILES: C#CCNc1nc(NCCC)nc(N(C)OC)n1.O=C(O)/C=C\C(=O)O
melting point: 123 to 125 °C

melting point: 105 to 107 °C
SMILES: C#CCNc1nc(NC2CCC2)nc(N(C)OC)n1.Cl

SMILES: Clc1nc(Cl)nc(Cl)n1 [cyanuric chloride]
Solubility of cyanuric chloride ([2]; Acetone, 0 °C): partial crystallization
Solubility of cyanuric chloride ([2]; Acetone, r.t.): soluble
Solubility of cyanuric chloride ([2]; DMAc, 0 °C): soluble
Solubility of cyanuric chloride ([2]; DMAc, r.t.): soluble
Solubility of cyanuric chloride ([2]; DMF, 0 °C): decomposition
Solubility of cyanuric chloride ([2]; DMF, r.t.): decomposition
Solubility of cyanuric chloride ([2]; DMSO, 0 °C): decomposition
Solubility of cyanuric chloride ([2]; DMSO, r.t.): decomposition
Solubility of cyanuric chloride ([2]; Dioxane, 0 °C): soluble
Solubility of cyanuric chloride ([2]; Dioxane, r.t.): soluble
Solubility of cyanuric chloride ([2]; IPA, 0 °C): insoluble
Solubility of cyanuric chloride ([2]; MeCN, 0 °C): insoluble
Solubility of cyanuric chloride ([2]; MeCN, r.t.): 150 µg/mL
Solubility of cyanuric chloride ([2]; THF, 0 °C): soluble
Solubility of cyanuric chloride ([2]; THF, r.t.): soluble
Solubility of cyanuric chloride ([2]; Toluene, 0 °C): soluble
Solubility of cyanuric chloride ([2]; Toluene, r.t.): soluble

melting point: 105 to 107 °C
SMILES: C#CCON(C)c1nc(NCCC)nc(NCCC)n1.Cl

SMILES: C#CCNc1nc(NCCC)nc(N(C)OC)n1.O=C(O)CC(=O)O
melting point: 113 to 115 °C

SMILES: C#CCNc1nc(NCCC)nc(N(C)OC)n1
melting point: 79 to 81 °C

melting point: 110 to 113 °C
SMILES: C#CCN(OC)c1nc(NCCC)nc(NCCC)n1.Cl

melting point: 182 to 184 °C
SMILES: C#CCNc1nc(N(C)OC)c2cc[nH]c2n1.Cl

SMILES: C#CCNc1nc(NC)nc(NCCC)n1.Cl [Compound 7a, N-Methyl-N′-n-propyl-N″-prop-2-ynyl-[1,3,5]triazine-2,4,6-triamine hydrochloride]
duration of the increase in minute ventilation [1]: approximately 2 minutes
increase in minute ventilation above baseline values [1]: up to 85%
increase in respiratory rate [1]: up to 46%
increase in tidal volume [1]: up to 27%

melting point: 172 to 174 °C
SMILES: C#CCNc1nc(N)nc(N(C)OC)n1 [Compound 132, N-(4-Amino-6-prop-2-ynylamino-[1,3,5]triazin-2-yl)-O,N-dimethyl-hydroxylamine]

SMILES: C#CCNc1nc(NCCC)nc(N(C)OC)n1 [Compound 5b, O,N-Dimethyl-N-[4-(n-propylamino)-6-(prop-2-ynylamino)-[1,3,5]triazin-2-yl]-hydroxylamine hydrogen sulfate]
duration of the increase in minute ventilation [3]: 120 min
increase in minute ventilation compared to baseline [3]: approximately 50%
effect on mean blood pressure ([3]; during the period of increased ventilation): no significant effect
central apneas during NREM sleep, percent change from baseline (pre-treatment) [4]: percent change (decrease) in apnea frequency was present
NREM minute volume (VE) ([4]; hydrogen sulfate): no statistically significant effects; also recorded: trend for an initial increase in minute volume between 0 to 60 min post-dose; also recorded: no discernible effect
REM minute volume ([4]; hydrogen sulfate): no visible effects
frequency of central apneas during NREM sleep ([4]; hydrogen sulfate): decreased apnea frequency at 120 min and 150 min post-gavage compared to vehicle; also recorded: decreased apnea frequency during NREM sleep compared to vehicle and the pre-treatment (baseline) values; also recorded: significantly reduces
frequency of central apneas during REM sleep ([4]; hydrogen sulfate): did not visibly alter; also recorded: no visible effect; also recorded: does not reduce
minute volume prior to carotid body denervation ([5]; 0.1 and 0.3 mg/kg IV bolus): dose-dependently increased minute volume
ventilatory response after carotid sinus nerve transection ([5]; 0.1 and 0.3 mg/kg IV bolus): completely abolished the ventilatory response
ventilatory response after SHAM surgery ([5]; IV bolus): no effect on the ventilatory response
solubility in MeOH ([6]; MeOH): freely soluble
solubility in water ([6]; water): freely soluble
